Structures can show the parent of a compound that is named as a salt.
Molecular target: human SPR (Homo sapiens (Human), UniProt P35270)
Experiment: Evaluation Example 2: Measurement of human SPR inhibitory activity (seven concentrations, sepiapterin absorbance at 420 nm)
Type: biochemical
Conditions: Evaluation Example 2, seven concentrations 0.14 nM to 100 nM, 240 minutes at room temperature, read-out: IC50
In short: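 Reactions ran 240 min at room temperature in 100 mM Tris-HCl pH 7.5 with 0.01% BSA. They contained tag-cleaved, E. coli-expressed full-length human SPR (diluted to 150 ng/mL), seven compound concentrations from 0.14 to 100 nM, and sepiapterin/NADPH added as a 120 μM/160 μM solution. Inhibition was calculated from sepiapterin absorbance at 420 nm.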

human SPR, sequence (P35270 whole entry): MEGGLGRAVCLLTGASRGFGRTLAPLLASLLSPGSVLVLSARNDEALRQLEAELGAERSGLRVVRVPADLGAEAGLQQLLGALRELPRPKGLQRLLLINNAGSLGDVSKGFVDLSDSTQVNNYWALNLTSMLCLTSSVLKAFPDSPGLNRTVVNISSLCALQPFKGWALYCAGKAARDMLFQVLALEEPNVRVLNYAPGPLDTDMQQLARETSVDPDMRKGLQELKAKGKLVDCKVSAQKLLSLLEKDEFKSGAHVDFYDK

Q: How did the IC50 turn out when `CC(C)(C)Cn1c(=O)c(C(=O)NC2CC2)c(O)n2nc(Nc3cnc(C(=O)N4CCC(F)(F)CC4)cn3)cc12` [Synthesis Example 355, N-Cyclopropyl-2-((5-(4,4-difluoropiperidine-1-carbonyl)pyrazin-2-yl)amino)-7-hydroxy-4-neopentyl-5-oxo-4,5-dihydropyrazolo[1,5-a]pyrimidine-6-carboxamide] was run?
A: 1.1 nM

Q: `CC(C)(C)Cn1c(=O)c(C(=O)NC2CC2)c(O)n2nc(Nc3cncc(F)n3)cc12` [Synthesis Example 356, N-Cyclopropyl-2-((6-fluoropyrazin-2-yl)amino)-7-hydroxy-4-neopentyl-5-oxo-4,5-dihydropyrazolo[1,5-a]pyrimidine-6-carboxamide] was tested. Which IC50 did it give?
A: 1.16 nM

Q: `Cn1ccnc1Nc1cc2n(CC(C)(C)C)c(=O)c(C(=O)NC3CC3)c(O)n2n1` [Synthesis Example 357, N-Cyclopropyl-7-hydroxy-2-((1-methyl-1H-imidazol-2-yl)amino)-4-neopentyl-5-oxo-4,5-dihydropyrazolo[1,5-a]pyrimidine-6-carboxamide] was tested. Which IC50 did it give?
A: 1.5 nM

Q: With `CN(CC#N)C(=O)c1cnc(Nc2cc3n(CC(C)(C)C)c(=O)c(C(=O)NC4CC4)c(O)n3n2)cn1` [Synthesis Example 358, 2-((5-((Cyanomethyl)(methyl)carbamoyl)pyrazin-2-yl)amino)-N-cyclopropyl-7-hydroxy-4-neopentyl-5-oxo-4,5-dihydropyrazolo[1,5-a]pyrimidine-6-carboxamide] as the molecule, how does the IC50 read?
A: 0.87 nM

Q: How did the IC50 turn out when `CC(C)(C)Cn1c(=O)c(C(=O)NC2CC2)c(O)n2nc(Nc3cnc(C(=O)N4CCC(C#N)CC4)cn3)cc12` [Synthesis Example 359, 2-((5-(4-Cyanopiperidine-1-carbonyl)pyrazin-2-yl)amino)-N-cyclopropyl-7-hydroxy-4-neopentyl-5-oxo-4,5-dihydropyrazolo[1,5-a]pyrimidine-6-carboxamide] was run?
A: 0.88 nM

Q: For `CC(C)(C)Cn1c(=O)c(C(=O)NC2CC2)c(O)n2nc(Nc3cnc(C(=O)N4CC[C@H](O)C4)cn3)cc12` [Synthesis Example 360, (S)-N-Cyclopropyl-7-hydroxy-2-((5-(3-hydroxypyrrolidine-1-carbonyl)pyrazin-2-yl)amino)-4-neopentyl-5-oxo-4,5-dihydropyrazolo[1,5-a]pyrimidine-6-carboxamide], which IC50 is on record?
A: 0.76 nM

Q: For `CC(C)(C)Cn1c(=O)c(C(=O)NC2CC2)c(O)n2nc(Nc3ncco3)cc12` [Synthesis Example 361, N-Cyclopropyl-7-hydroxy-4-neopentyl-2-(oxazol-2-ylamino)-5-oxo-4,5-dihydropyrazolo[1,5-a]pyrimidine-6-carboxamide], which IC50 is on record?
A: 1.42 nM

Q: With `CN(C)/C=N/c1cc2n(CC(C)(C)C)c(=O)c(C(=O)NC3CC3)c(O)n2n1` [Synthesis Example 362, (E)-N-Cyclopropyl-2-(((dimethylamino)methylene)amino)-7-hydroxy-4-neopentyl-5-oxo-4,5-dihydropyrazolo[1,5-a]pyrimidine-6-carboxamide hydrochloride] as the molecule, how does the IC50 read?
A: 1.48 nM

Q: How did the IC50 turn out when `CC(C)Cn1c(=O)c(C(=O)NC2CC2)c(O)n2nc(/N=C/N(C)C)cc12` [Synthesis Example 363, (E)-N-Cyclopropyl-2-(((dimethylamino)methylene)amino)-7-hydroxy-4-isobutyl-5-oxo-4,5-dihydropyrazolo[1,5-a]pyrimidine-6-carboxamide hydrochloride] was run?
A: 1.61 nM

Q: For `O=C(NC1CC1)c1c(O)n2ncc(/C=C/C(=O)N3CCOCC3)c2n(CC2(F)CC2)c1=O` [Synthesis Example 364, (E)-N-Cyclopropyl-4-((1-fluorocyclopropyl)methyl)-7-hydroxy-3-(3-morpholino-3-oxoprop-1-en-1-yl)-5-oxo-4,5-dihydropyrazolo[1,5-a]pyrimidine-6-carboxamide], which IC50 is on record?
A: 0.63 nM

Q: `COC(C)(C)Cn1c(=O)c(C(=O)NC2CC2)c(O)n2ncc(/C=C/C(=O)N3CCOCC3)c12` [Synthesis Example 365, (E)-N-Cyclopropyl-7-hydroxy-4-(2-methoxy-2-methylpropyl)-3-(3-morpholino-3-oxoprop-1-en-1-yl)-5-oxo-4,5-dihydropyrazolo[1,5-a]pyrimidine-6-carboxamide] was tested. Which IC50 did it give?
A: 0.65 nM
